20 compounds from US10285989B2, “Pyrimidinone amide compounds as PDE2 inhibitors” (Merck Sharp & Dohme Corp., priority 2015, dated 2019) can be followed below.

For one data set, the target named is P-glycoprotein (P-gp) (Homo sapiens (Human), UniProt P08183). Nature of the data set: P-gp transport, experimental BA/AB ratio, human. The format is in vitro ADME. The settings on record: LLC-PK1, 1 μM substrate concentration. The text has this: (§1) See Doan et al. “Passive permeability and P-glycoprotein-mediated efflux differentiate central nervous system (CNS) and non-CNS marketed drugs”, J. Pharm. Exper. […] Desirable human BA/AB ratio is less than 2.0. […] See, for example, Desai, et al. Integration of in Silico and in Vitro Tools for Scaffold Optimization during Drug Discovery: Predicting P-glycoprotein Efflux” Mol. Pharmac.
Chain of P-glycoprotein (P-gp) (P08183 whole entry): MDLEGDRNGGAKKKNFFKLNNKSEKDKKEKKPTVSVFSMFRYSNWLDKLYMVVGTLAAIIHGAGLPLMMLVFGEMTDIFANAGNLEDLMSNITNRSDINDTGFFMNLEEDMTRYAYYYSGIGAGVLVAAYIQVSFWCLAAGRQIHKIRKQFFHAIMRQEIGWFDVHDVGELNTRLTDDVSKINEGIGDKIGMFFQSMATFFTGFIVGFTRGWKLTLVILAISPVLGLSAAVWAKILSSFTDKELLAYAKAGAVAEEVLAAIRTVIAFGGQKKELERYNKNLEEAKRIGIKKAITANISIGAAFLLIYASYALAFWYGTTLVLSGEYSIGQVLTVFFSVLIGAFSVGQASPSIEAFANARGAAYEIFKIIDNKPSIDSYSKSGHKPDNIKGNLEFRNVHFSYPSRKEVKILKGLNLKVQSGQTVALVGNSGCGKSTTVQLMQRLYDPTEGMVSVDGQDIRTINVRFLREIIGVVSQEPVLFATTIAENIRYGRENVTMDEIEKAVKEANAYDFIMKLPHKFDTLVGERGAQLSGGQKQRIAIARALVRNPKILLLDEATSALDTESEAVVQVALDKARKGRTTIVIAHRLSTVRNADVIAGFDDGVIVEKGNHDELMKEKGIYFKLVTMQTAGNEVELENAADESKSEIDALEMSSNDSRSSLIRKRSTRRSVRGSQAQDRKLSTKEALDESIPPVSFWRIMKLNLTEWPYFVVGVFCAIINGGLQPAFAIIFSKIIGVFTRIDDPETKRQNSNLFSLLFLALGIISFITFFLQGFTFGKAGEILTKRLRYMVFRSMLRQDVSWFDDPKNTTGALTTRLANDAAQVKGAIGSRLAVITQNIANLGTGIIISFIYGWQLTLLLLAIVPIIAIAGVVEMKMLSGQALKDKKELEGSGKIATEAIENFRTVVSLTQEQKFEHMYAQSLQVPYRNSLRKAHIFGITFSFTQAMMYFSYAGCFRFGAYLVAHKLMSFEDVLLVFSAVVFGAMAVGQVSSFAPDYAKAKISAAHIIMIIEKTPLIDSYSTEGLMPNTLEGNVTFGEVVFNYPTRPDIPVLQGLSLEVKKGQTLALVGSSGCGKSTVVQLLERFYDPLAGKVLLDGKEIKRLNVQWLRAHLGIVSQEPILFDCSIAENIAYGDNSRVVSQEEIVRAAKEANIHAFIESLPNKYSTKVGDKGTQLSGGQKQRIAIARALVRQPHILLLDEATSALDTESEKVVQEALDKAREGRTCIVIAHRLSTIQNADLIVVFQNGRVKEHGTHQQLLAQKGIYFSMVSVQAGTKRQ

Data set [1] addresses P-glycoprotein (P-gp, rat Mdr1a) (Rattus norvegicus, UniProt Q6PSM0). Nature of the data set: P-gp transport, experimental BA/AB ratio, rat LLC-Mdr1a. The format is in vitro ADME. The settings on record: LLC-PK1; rat LLC-Mdrla; 1 μM substrate concentration.
Source text: as §1

In a further data set the target is human PDE2A1 (Homo sapiens (Human), UniProt O00408). Nature of the data set: PDE2 IMAP FP inhibition assay, human PDE2A1 (selectivity panel format). Format: biochemical. In outline: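 IMAP fluorescence polarization assay; substrate 50 nM FAM-cAMP with 1000 nM cGMP, enzyme at ~20% conversion, in 10 mM Tris pH 7.2, 10 mM MgCl2, 1 mM DTT, 0.01% Tween-20. 60 min room temperature, stopped with IMAP binding reagent, 1 h, then parallel/perpendicular fluorescence read.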
Chain of human PDE2A1 (O00408 other isoform, or with tags, fused parts or gaps): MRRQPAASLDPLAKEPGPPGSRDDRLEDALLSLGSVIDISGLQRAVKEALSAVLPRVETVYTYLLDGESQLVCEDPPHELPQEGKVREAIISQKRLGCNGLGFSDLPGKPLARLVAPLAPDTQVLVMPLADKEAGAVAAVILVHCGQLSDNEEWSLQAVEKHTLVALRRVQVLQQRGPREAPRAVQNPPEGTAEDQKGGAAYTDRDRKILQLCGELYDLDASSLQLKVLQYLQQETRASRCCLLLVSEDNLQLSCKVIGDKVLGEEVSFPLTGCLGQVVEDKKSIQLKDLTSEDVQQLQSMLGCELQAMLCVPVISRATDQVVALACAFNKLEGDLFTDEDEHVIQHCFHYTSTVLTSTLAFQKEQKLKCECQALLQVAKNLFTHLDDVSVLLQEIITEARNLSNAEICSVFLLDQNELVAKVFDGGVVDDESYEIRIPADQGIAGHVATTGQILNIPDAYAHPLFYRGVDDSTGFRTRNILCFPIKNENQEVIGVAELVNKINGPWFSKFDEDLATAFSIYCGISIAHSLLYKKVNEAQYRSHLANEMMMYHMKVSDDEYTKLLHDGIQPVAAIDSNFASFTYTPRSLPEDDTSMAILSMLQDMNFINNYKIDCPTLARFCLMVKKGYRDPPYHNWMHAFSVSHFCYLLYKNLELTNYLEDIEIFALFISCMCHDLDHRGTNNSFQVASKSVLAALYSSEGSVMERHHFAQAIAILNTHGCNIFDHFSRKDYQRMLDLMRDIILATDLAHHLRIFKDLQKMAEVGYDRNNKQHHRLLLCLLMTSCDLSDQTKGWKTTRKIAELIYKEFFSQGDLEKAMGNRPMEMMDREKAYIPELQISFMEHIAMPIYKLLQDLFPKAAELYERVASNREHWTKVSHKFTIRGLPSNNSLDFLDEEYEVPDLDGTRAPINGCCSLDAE

The target in a further data set is Rhesus PDE2A3 (Macaca mulatta, UniProt B3VTJ2). Nature of the data set: PDE2 fluorescence polarization (IMAP FP) inhibition assay, rhesus PDE2A3. Format: biochemical, rhesus macaque. The method, then:
A Labcyte Echo 555 (Labcyte, Sunnyvale, Calif.) is used to dispense 200 nL from each well of the titration plate to the 384 well assay plate. Ten microliters of a solution of enzyme (1/2000 final dilution from aliquots; sufficient to produce 20% substrate conversion) was added to the assay plate. Next 10 uL of a separate solution of the substrate FAM-labeled cAMP (50 nM final concentration product # R^7506 from Molecular Devices) and the activator cGMP (1 uM final concentration), prepared in the assay buffer (10 mM Tris HCl, pH 7.2, 10 mM MgCl2, 0.05% NaN3 0.01% Tween-20, and 1 mM DTT) was added to the assay plate and shaken to mix. The reaction is allowed to proceed at room temperature for 60 minutes. A binding solution is then made from the kit components, comprised of 80% Solution A, 20% Solution B and binding reagent at a volume of 1/600 the total binding solution. The enzymatic reaction is stopped by addition of 60 μL of the binding solution to each well of the assay plates and the plates are sealed and shaken for 30 seconds. The plate was incubated at room temperature for at least one hour prior to determining the fluorescence polarization (FP). The parallel and perpendicular fluorescence of each well of the plate was measured using a Tecan Genios Pro plate reader (Tecan, Switzerland) or Perkin Elmer EnVision™ plate reader (Waltham, Mass.). Fluorescence polarization (mP) was calculated from the parallel (S) and perpendicular (P) fluorescence of each sample well and the analogous values for the median control well, containing only substrate (So and Po), using the following equation: Polarization (mP)=1000*(S/So−P/Po)/(S/So+P/Po).
Dose-inhibition profiles for each compound were characterized by fitting the mP data to a four-parameter equation given below.
An apparent (KM) for FAM-labeled cAMP of ˜10 uM was used.
A general note: Fluorescence polarisation rises when a labelled molecule tumbles more slowly, as on binding a larger partner.

Setting [2] is: Lab B, read-out: Human PDE2 Ki (nM) - Lab B.
Where [3] appears, read: Lab A, read-out: Human PDE2 Ki (nM) - Lab A.
Setting [4] is: Lab A, read-out: Rhesus PDE2 Ki (nM) - Lab A.
Where [5] appears, read: Lab B, read-out: Rhesus PDE2 Ki (nM) - Lab B.

Read-outs that look alike come from different tables or passages of the source.

Chain of P-glycoprotein (P-gp, rat Mdr1a) (Q6PSM0 1-1272): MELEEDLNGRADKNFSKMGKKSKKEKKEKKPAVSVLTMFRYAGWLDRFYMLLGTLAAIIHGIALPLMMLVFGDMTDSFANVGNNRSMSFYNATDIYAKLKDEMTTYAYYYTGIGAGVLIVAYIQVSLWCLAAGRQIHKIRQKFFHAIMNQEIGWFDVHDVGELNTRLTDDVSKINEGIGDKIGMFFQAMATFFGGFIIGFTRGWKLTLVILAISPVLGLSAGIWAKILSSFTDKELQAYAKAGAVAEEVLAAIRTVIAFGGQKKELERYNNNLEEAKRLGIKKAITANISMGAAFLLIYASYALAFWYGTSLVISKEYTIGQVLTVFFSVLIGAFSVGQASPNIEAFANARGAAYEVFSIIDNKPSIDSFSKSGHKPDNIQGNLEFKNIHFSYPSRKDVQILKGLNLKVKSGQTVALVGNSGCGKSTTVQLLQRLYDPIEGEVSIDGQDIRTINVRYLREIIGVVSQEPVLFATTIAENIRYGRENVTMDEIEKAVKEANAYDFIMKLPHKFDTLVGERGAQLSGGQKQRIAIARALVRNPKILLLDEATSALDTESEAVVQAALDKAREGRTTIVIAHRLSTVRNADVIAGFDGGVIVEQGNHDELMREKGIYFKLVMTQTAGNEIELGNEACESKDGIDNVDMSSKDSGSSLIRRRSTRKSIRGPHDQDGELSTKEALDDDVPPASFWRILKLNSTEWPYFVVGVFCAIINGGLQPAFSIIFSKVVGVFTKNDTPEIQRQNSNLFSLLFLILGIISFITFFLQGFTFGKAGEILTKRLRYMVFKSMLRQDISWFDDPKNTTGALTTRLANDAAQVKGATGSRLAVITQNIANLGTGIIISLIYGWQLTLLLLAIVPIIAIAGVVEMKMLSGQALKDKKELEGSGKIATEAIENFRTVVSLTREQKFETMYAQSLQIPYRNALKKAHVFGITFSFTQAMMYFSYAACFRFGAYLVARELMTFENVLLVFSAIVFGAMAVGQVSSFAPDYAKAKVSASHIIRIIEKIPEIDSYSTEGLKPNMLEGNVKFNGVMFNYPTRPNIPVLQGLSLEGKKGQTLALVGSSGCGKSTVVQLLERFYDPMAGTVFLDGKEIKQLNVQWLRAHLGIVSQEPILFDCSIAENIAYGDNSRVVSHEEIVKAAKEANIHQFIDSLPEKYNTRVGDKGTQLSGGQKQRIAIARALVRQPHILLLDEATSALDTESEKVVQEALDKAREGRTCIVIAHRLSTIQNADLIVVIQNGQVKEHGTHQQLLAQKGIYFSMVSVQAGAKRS
Chain of Rhesus PDE2A3 (B3VTJ2 1-941): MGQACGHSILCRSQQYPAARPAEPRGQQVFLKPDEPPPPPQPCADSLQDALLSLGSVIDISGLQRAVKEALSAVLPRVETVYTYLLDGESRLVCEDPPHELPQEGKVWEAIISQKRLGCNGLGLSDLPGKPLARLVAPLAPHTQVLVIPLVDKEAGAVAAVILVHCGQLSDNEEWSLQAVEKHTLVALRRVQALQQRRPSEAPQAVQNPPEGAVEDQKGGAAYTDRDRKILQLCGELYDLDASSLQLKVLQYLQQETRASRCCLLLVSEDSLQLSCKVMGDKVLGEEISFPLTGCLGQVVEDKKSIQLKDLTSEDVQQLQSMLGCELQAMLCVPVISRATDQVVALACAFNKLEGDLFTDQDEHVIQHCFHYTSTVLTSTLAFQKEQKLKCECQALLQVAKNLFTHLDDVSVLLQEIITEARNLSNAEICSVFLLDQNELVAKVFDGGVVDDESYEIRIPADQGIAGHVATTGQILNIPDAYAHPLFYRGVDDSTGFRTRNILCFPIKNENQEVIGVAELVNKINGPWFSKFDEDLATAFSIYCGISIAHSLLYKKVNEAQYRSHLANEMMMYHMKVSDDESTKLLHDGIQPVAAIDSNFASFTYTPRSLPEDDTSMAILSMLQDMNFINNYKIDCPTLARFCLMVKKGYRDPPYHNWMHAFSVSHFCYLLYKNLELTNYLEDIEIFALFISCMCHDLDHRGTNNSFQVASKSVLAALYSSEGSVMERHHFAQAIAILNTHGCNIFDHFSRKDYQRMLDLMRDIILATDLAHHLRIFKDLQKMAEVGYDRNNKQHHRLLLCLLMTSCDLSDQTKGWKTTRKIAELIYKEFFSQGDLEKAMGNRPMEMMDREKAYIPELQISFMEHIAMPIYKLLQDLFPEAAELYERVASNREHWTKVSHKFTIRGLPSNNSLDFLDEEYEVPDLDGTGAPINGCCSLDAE

`CNc1nc(C(=O)N[C@@H](c2ccc(C(F)(F)F)cc2)C(C)(C)C)cc(=O)[nH]1` [Example 158, N-{(1R)-2,2-dimethyl-1-[4-(trifluoromethyl)phenyl]propyl}-2-(methylamino)-6-oxo-1,6-dihydropyrimidine-4-carboxamide]: the values for the efflux ratio at 1 μM (on P-glycoprotein (P-gp); in data set [1]) were 7.8 and 24.4, respectively. Further, the Ki (in general, the dissociation constant of the complex between target and ligand, obtained from inhibition or displacement) on human PDE2A1 (setting [2]) was 0.85 nM.

Turning to `CN(C)c1nc(C(=O)N[C@@H](c2ccc(C(F)F)c(F)c2)C2CC2)cc(=O)[nH]1` [Example 66, N-{(R)-cyclopropyl[4-(difluoromethyl)-3-fluorophenyl]methyl}-2-(dimethylamino)-6-oxo-1,6-dihydropyrimidine-4-carboxamide], the figures for the efflux ratio at 1 μM (on P-glycoprotein (P-gp); in data set [1]) were 0.8 and 6.1, respectively. The Ki on human PDE2A1 (setting [2]) was 5 nM.

Take `CN(C)c1nc(C(=O)N[C@@H](c2ccc(C(F)F)c(F)c2)C2(C)CC2)cc(=O)[nH]1` [Example 59, N-[(R)-[4-(difluoromethyl)-3-fluorophenyl](1-methylcyclopropyl)methyl]-2-(dimethylamino)-6-oxo-1,6-dihydropyrimidine-4-carboxamide]: the efflux ratio – broadly, a quotient of directional permeabilities that is used to spot active efflux – at 1 μM on P-glycoprotein (P-gp) came to 0.8; in data set [1] it was 4.2. Further, the Ki on human PDE2A1 (setting [2]) was found to be 2 nM.

Take `CC(C)[C@@H](NC(=O)c1cc(=O)[nH]c(N(C)C)n1)c1ccc(C(F)F)cc1` [Example 63, N-{(1R)-1-[4-(difluoromethyl)phenyl]-2-methylpropyl}-2-(dimethylamino)-6-oxo-1,6-dihydropyrimidine-4-carboxamide]: the efflux ratio at 1 μM at P-glycoprotein (P-gp) was found to be 1.7; in data set [1] it was 10.2. In addition, at human PDE2A1 (setting [2]), the Ki is 1.9 nM.

`CC[C@@H](NC(=O)c1cc(=O)[nH]c(N2CCCC2)n1)c1ccc(SC(F)(F)F)c(F)c1` [Example 29, N-[(1R)-1-{3-fluoro-4-[(trifluoromethyl)sulfanyl]phenyl}propyl]-6-oxo-2-pyrrolidin-1-yl-1,6-dihydropyrimidine-4-carboxamide]: the inhibition constant Ki at human PDE2A1 (setting [3]) came out at 0.22 nM; at Rhesus PDE2A3 (setting [4]) it was 0.56 nM.

As to `CN(C)c1nc(C(=O)NC2(c3ccc(C(C)(C)C)cc3)CC2)cc(=O)[nH]1` [Example 46, N-[1-(4-tert-butylphenyl)cyclopropyl]-2-(dimethylamino)-6-oxo-1,6-dihydropyrimidine-4-carboxamide], the Ki on human PDE2A1 (setting [2]) amounted to 3.6 nM; at Rhesus PDE2A3 (setting [5]), 3.4 nM.

For `CN(C)c1nc(C(=O)N[C@@H](c2ccc(C3CC3)cc2)C2CC2)cc(=O)[nH]1` [Example 115, N-[(R)-cyclopropyl(4-cyclopropylphenyl)methyl]-2-(dimethylamino)-6-oxo-1,6-dihydropyrimidine-4-carboxamide], at P-glycoprotein (P-gp), the efflux ratio at 1 μM worked out at 0.3. In addition, the figures for the inhibition constant (Ki) at human PDE2A1 (setting [2]) and on Rhesus PDE2A3 (setting [5]) were 0.76 nM and 1 nM, respectively.

Regarding `CC(C)[C@@H](NC(=O)c1cc(=O)[nH]c(N(C)C)n1)c1ccc(OC(F)(F)F)c(F)c1` [Example 149, 2-(dimethylamino)-N-{(1R)-1-[3-fluoro-4-(trifluoro-methoxy)phenyl]-2-methylpropyl}-6-oxo-1,6-dihydropyrimidine-4-carboxamide], the Ki was 0.42 nM at human PDE2A1 (setting [2]), 0.48 nM on Rhesus PDE2A3 (setting [4]) and 0.51 nM at Rhesus PDE2A3 (setting [5]).

On to `C[C@@H](NC(=O)c1cc(=O)[nH]c(N2CC(F)(F)C2)n1)c1ccc(C(F)(F)F)cc1` [Example 24, 2-(3,3-Difluoroazetidin-1-yl)-6-oxo-N-{(1R)-1-[4-(trifluoromethyl)phenyl]ethyl}-1,6-dihydropyrimidine-4-carboxamide], for which the Ki at human PDE2A1 (setting [3]) turned out to be 40 nM; on Rhesus PDE2A3 (setting [4]), 79 nM.

Regarding `Cc1cc(C(F)(F)F)ccc1C(C)(C)NC(=O)c1cc(=O)[nH]c(N(C)C)n1` [Example 78, 2-(dimethylamino)-N-{1-methyl-1-[2-methyl-4-(trifluoromethyl)phenyl]ethyl}-6-oxo-1,6-dihydropyrimidine-4-carboxamide], the figures for the Ki at human PDE2A1 (setting [2]) and at Rhesus PDE2A3 (setting [5]) were 2.2 nM and 2.3 nM, respectively.

As for `C[C@@H](NC(=O)c1cc(=O)[nH]c(N(C)C)n1)c1ccc(C(F)(F)F)c(F)c1F` [Example 84, N-{(1R)-1-[2,3-difluoro-4-(trifluoromethyl)phenyl]ethyl}-2-(dimethylamino)-6-oxo-1,6-dihydropyrimidine-4-carboxamide], the Ki came to 2.5 nM at human PDE2A1 (setting [2]) and 3.5 nM at Rhesus PDE2A3 (setting [5]).

For `CN(C)c1nc(C(=O)NC(C)(C)c2ccc(S(F)(F)(F)(F)F)cc2)cc(=O)[nH]1` [Example 118, 2-(Dimethylamino)-N-{1-methyl-1-[4-(pentafluoro-λ^6-sulfanyl)phenyl]ethyl}-6-oxo-1,6-dihydropyrimidine-4-carboxamide], the Ki at human PDE2A1 (setting [2]) is 140 nM; at Rhesus PDE2A3 (setting [5]), 224 nM.

As to `Cc1ncc2c(n1)CN(c1nc(C(=O)N[C@H](C)c3ccc(C(F)(F)F)cc3)cc(=O)[nH]1)C2` [Example 159, 2-(2-methyl-5,7-dihydro-6H-pyrrolo[3,4-d]pyrimidin-6-yl)-6-oxo-N-{(1R)-1-[4-(trifluoromethyl)phenyl]ethyl}-1,6-dihydropyrimidine-4-carboxamide], the Ki was 11 nM at human PDE2A1 (setting [3]) and 18 nM on Rhesus PDE2A3 (setting [4]).

With `CN(C)c1nc(C(=O)N[C@@H](c2ccc(S(F)(F)(F)(F)F)cc2)C(C)(C)C)cc(=O)[nH]1` [Example 38, 2-(dimethylamino)-N-{(1R)-2,2-dimethyl-1-[4-(pentafluoro-λ^6-sulfanyl)phenyl]propyl}-6-oxo-1,6-dihydropyrimidine-4-carboxamide], the efflux ratio at 1 μM on P-glycoprotein (P-gp) came to 1. Moreover, the values for the Ki on human PDE2A1 (setting [2]) and on Rhesus PDE2A3 (setting [5]) were 0.14 nM and 0.11 nM, respectively.

Consider `C[C@@H](NC(=O)c1cc(=O)[nH]c(N2CCCC2)n1)c1ccc(OC(F)(F)F)cc1` [Example 28, 6-oxo-2-pyrrolidin-1-yl-N-{(1R)-1-[4-(trifluoromethoxy)phenyl]ethyl}-1,6-dihydropyrimidine-4-carboxamide], for which the inhibition constant (Ki) on human PDE2A1 (setting [3]) came out at 0.45 nM; at Rhesus PDE2A3 (setting [4]) it was 1.3 nM.

As for `CC(C)[C@@H](NC(=O)c1cc(=O)[nH]c(N(C)C)n1)c1ccc(OC(F)F)cc1` [Example 33, N-{(1R)-1-[4-(difluoromethoxy)phenyl]-2-methylpropyl}-2-(dimethylamino)-6-oxo-1,6-dihydropyrimidine-4-carboxamide], the efflux ratio at 1 μM at P-glycoprotein (P-gp) was 1.3. Also, the Ki came out at 2 nM on human PDE2A1 (setting [2]) and 2.7 nM at Rhesus PDE2A3 (setting [5]).

`CC(C)[C@@H](NC(=O)c1cc(=O)[nH]c(N(C)C)n1)c1ccc(OC(F)(F)F)c(Cl)c1` [Example 86, N-{(1R)-1-[3-chloro-4-(trifluoromethoxy)phenyl]-2-methylpropyl}-2-(dimethylamino)-6-oxo-1,6-dihydropyrimidine-4-carboxamide]: the Ki on human PDE2A1 (setting [2]) was determined as 1.7 nM; at Rhesus PDE2A3 (setting [4]), 0.54 nM; on Rhesus PDE2A3 (setting [5]) it was 2.1 nM.

`CN(C)c1nc(C(=O)N[C@@H](c2ccc(OC(F)F)cc2)C2CC2)cc(=O)[nH]1` [Example 32, N-{(R)-cyclopropyl[4-(difluoromethoxy)phenyl]methyl}-2-(dimethylamino)-6-oxo-1,6-dropyrimidine-4-carboxamide]: at P-glycoprotein (P-gp), the efflux ratio at 1 μM is 1.1. Moreover, the Ki worked out at 5.3 nM at human PDE2A1 (setting [2]) and 6.4 nM on Rhesus PDE2A3 (setting [5]).

Regarding `C[C@@H](NC(=O)c1cc(=O)[nH]c(N)n1)c1ccc(C(F)(F)F)cc1` [Example 134, 2-amino-6-oxo-N-{(1R)-1-[4-(trifluoromethyl)phenyl]ethyl}-1,6-dihydropyrimidine-4-carboxamide], the Ki on human PDE2A1 (setting [3]) stood at 144 nM; at Rhesus PDE2A3 (setting [4]), 272 nM.

Consider `C[C@@H](NC(=O)c1cc(=O)[nH]c(N2CC[C@@H](F)C2)n1)c1ccc(C(F)(F)F)cc1` [Example 11, 2-((R)-3-fluoropyrrolidin-1-yl)-6-oxo-N—((R)-1-(4-(trifluoromethyl)phenyl)ethyl)-1,6-dihydropyrimidine-4-carboxamide], for which the inhibitory constant (Ki) on human PDE2A1 (setting [3]) turned out to be 18 nM; on Rhesus PDE2A3 (setting [4]), 30 nM.
